Reference: patent EP1175907A1, “REMEDIES” (Takara Shuzo Co, Ltd., priority 1999, dated 2000)
Values joined by “and” are separate entries in the source; they are usually repeats but may differ in a detail not shown here. Equal values may be shown once. *1 amine or outer side, *2 acyl side, *3 side chain or, on linkers, in order; H or OH if unused. Where a SMILES comes first, the peptide text is derived from it. Bridges are numbered along the chain shown (N, C = ends). Roman numbers before positions name the chains, in order. [ ]: non-standard residue; d: D form. Actinocin(9to1) = Cc1c2oc3c(C)ccc(C(=O)[*:1])c3nc-2c(C(=O)[*:2])c(N)c1=O; NMeV = CN[C@H](C(=O)O)C(C)C; Sar = CNCC(=O)O

Legend:
MRC-5 cells [1] = experiment: synergistic effect on HGF production with PGE1 or IL-1α in MRC-5 cells; assay type: cell-based, Human; conditions: control = 100%
Description: (1) Synergistic effect for the induction action for HGF production of the fucoidan derived from Kjellmaniella crassifolia described in item (1) of Reference Example 1 with prostaglandin or IL-1 was studied in the same manner as that in item (1) of Example 1.
Specifically, the synergistic effect for the induction activity for HGF production was studied by simultaneously adding the fucoidan and PGE1 (manufactured by Wako Pure Chemicals Industries, Ltd.) or IL-1α (manufactured by Genzyme).
The fucoidan sample was added so as to have a final concentration of 1, 10 or 100 µg/ml. PGE1 was added so as to have a concentration of 0.1 or 1 µM, the IL-1α was added so as to have a concentration of 1 ng/ml. As a control, distilled water was added in same volume as that of the sample.
The synergistic effect was studied in comparison to the amount produced of a case where the fucoidan sample or PGE1 or IL-1α was added alone.
In Tables 35 and 36, the amount of HGF produced of the control was regarded as 100%. Each experiment was carried out twice, and an average value was taken. […]
(2) Synergistic effect for the induction action for HGF production of 7-12SFd-F of Reference Example 2 with prostaglandin or IL-1 was studied in the same manner as that in item (1) of Example 2. […]

MRC-5 cells [2] = experiment: mRNA of HGF in MRC-5 cells (RT-PCR); assay type: cell-based; conditions: 7-12SFd-F 100 µg/ml, LM Heparin 1 µg/ml or PGE1 1 µM; Hours 0 to 24, compared to control
Description: MRC-5 cells (CCL 171: manufactured by DAINIPPON PHARMACEUTICAL CO., LTD., code. 02-021) cultured in a DMEM medium containing 10% fetal bovine serum were suspended in the DMEM medium containing 10% fetal bovine serum so as to have a concentration of 2.5 × 10^5 cells/ml, and added into each well of a 6-well cell culture plate. The cells were cultured at 37°C for 24 hours in the presence of 5% CO2. Thereafter, the medium was exchanged for a DMEM medium containing 1% fetal bovine serum, and the cells were further cultured for 22 hours. Thereafter, the medium was exchanged for each medium added with 7-12SFd-F prepared in item (3) of Reference Example 2 so as to have a final concentration of 100 µg/ml, LM Heparin (manufactured by Celsus Laboratories) so as to have a final concentration of 1 µg/ml, or prostaglandin E1 (PGE1) (manufactured by Wako Pure Chemicals Industries, Ltd.) dissolved in dimethyl sulfoxide (DMSO) so as to have a final concentration of 1 µM. As a medium for control group, the medium added with DMSO was used. Here, the solvent of each additive mentioned above was added so as to have a concentration of 1% in all cases. […] In addition, in order to carry out a semi-quantitative experiment, â-actin, a housekeeping gene, was also detected. […] In all of the samples, mRNA of HGF was detected. […]

NHDF cells = experiment: HGF in medium of NHDF cells with or without minoxidil; assay type: cell-based, human
Description: The cells were cultured for 24 hours. […] Also, the same steps were carried out for the group added with only the sample without adding minoxidil. The medium was collected, and the amount of HGF in the medium was determined by using Quantikine Human Hepatocyte Growth Factor (HGF) ELISA Kit. […] As a negative control, distilled water was added in the same volume as that of the sample. Each experiment was carried out three times, and an average value was taken.

MRC-5 cells [3] = experiment: HGF production in MRC-5 cells with actinomycin D (RNA synthesis inhibitor); assay type: cell-based, Human; conditions: for Amount of HGF Produced (in Medium): control = 100%
Description: (3) Five-hundred microliters of MRC-5 cells (CCL171: manufactured by DAINIPPON PHARMACEUTICAL CO., LTD., code. 02-021) suspended in a DME medium containing 10% fetal bovine serum so as to have a concentration of 1 × 10^5 cells/ml were added into each well of a 48-well cell culture plate. The cells were cultured at 37°C for 24 hours in the presence of 5% CO2, and then the medium was exchanged for a DME medium containing 1% fetal bovine serum. Thereafter, actinomycin D (RNA synthesis inhibitor: manufactured by Sigma) was added thereto so as to have a final concentration of 0, 0.1, or 1 µg/ml, and a sample to be analyzed was further added thereto. The cells were then cultured for 24 hours. This medium was collected, and the amount of HGF in the medium was determined by using Quantikine Human Hepatocyte Growth Factor (HGF) ELISA Kit (manufactured by Funakoshi, Code. RS-0641-00). As to the amount of HGF produced, negative control was regarded as 100%. As to the inhibitory ratio, the inhibitory ratio (%) of the actinomycin D-added fraction was calculated on the basis of the amount of HGF produced when the fucoidan was added alone at each concentration. The fucoidan derived from Kjellmaniella crassifolia described in item (1) of Reference Example 1 was added so as to have a final concentration of 1, 10 or 100 µg/ml. As the negative control, distilled water was added in the same volume as that of the sample. Each experiment was carried out twice, and an average value was taken. […] It was clarified from these findings that RNA synthesis was probably involved in the induction of HGF production by the fucoidan, not simply freeing of HGF from the cells.
(4) Five-hundred microliters of MRC-5 cells (CCL171: manufactured by DAINIPPON PHARMACEUTICAL CO., LTD., code. 02-021) suspended in a DME medium containing 10% fetal bovine serum so as to have a concentration of 1 × 10^5 cells/ml were added into each well of a 48-well cell culture plate. The cells were cultured at 37°C for 24 hours in the presence of 5% CO2, and then the medium was exchanged for a DME medium containing 1% fetal bovine serum. Thereafter, actinomycin D (RNA synthesis inhibitor: manufactured by Sigma) was added thereto so as to have a final concentration of 0, 0.1, or 1 µg/ml, and a sample was further added thereto. The cells were then cultured for 24 hours. This medium was collected, and the amount of HGF in the medium was determined by using Quantikine Human Hepatocyte Growth Factor (HGF) ELISA Kit (manufactured by Funakoshi, Code. RS-0641-00). In addition, the cells were washed with PBS, and thereafter dissolved in 500 µl of a cytolytic buffer (50 mM HEPES, pH 7.4; 10 mM EDTA, 0.1% Triton x 100; 1 mM PMSF; 1 µg/ml pepstatin A and 1 µg/ml, leupeptin). Further, in order to completely dissolve the cells, the mixture was subjected to sonication treatment, and then centrifuged, to give a supernatant (cell extract). The amount of HGF in the cell was determined in the same manner as that of the concentration of HGF in the medium. As to the amount of HGF produced, negative control was regarded as 100%. As to the inhibitory ratio, the inhibitory ratio (%) of the actinomycin D-added fraction was calculated on the basis of the amount of HGF produced when 7-12SFd-F was added alone at each concentration. 7-12SFd-F was added so as to have a final concentration of 1,10 or 100 µg/ml. As the negative control, distilled water was added in the same volume as that of the sample. Each experiment was carried out three times, and an average value was taken. […] It was clarified from these findings that RNA synthesis was probably involved in the induction of HGF production by 7-12SFd-F, not simply freeing of HGF from the cells.

## CCCCC[C@H](O)/C=C/[C@H]1[C@H](O)CC(=O)[C@@H]1CCCCCCC(=O)O [PGE1, prostaglandin E1]
MRC-5 cells [1]; PGE1 0.1 µM alone
  Amount of HGF Produced: 119% and 123%
MRC-5 cells [1]; PGE1 1 µM alone
  Amount of HGF Produced: 157% and 170%
MRC-5 cells [2]
  induction of mRNA of HGF: found

## Nc1cc(N2CCCCC2)nc(N)[n+]1[O-] [Minoxidil, minoxidil]
NHDF cells; Minoxidil 10 µg/ml alone
  Concentration of HGF in Medium: 126.04 pg/mL
NHDF cells; Minoxidil 100 µg/ml alone
  Concentration of HGF in Medium: 148.83 pg/mL and 137.20 pg/mL

## Cc1c2oc3c(C)ccc(C(=O)N[C@@H]4C(=O)N[C@H](C(C)C)C(=O)N5CCC[C@H]5C(=O)N(C)CC(=O)N(C)[C@@H](C(C)C)C(=O)O[C@@H]4C)c3nc-2c(C(=O)N[C@@H]2C(=O)N[C@H](C(C)C)C(=O)N3CCC[C@H]3C(=O)N(C)CC(=O)N(C)[C@@H](C(C)C)C(=O)O[C@@H]2C)c(N)c1=O [Actinomycin D, actinomycin D] (I: T[dV]P[Sar][NMeV] / II: T[dV]P[Sar][NMeV]; ester I:1-I:C, II:1-II:C; linker I:N-II:N via Actinocin(9to1))
MRC-5 cells [3]; Actinomycin D 0.1 µg/ml alone
  Amount of HGF Produced (Total in Cells and in Medium): 61%
  Inhibitory Ratio Where Actinomycin D Non-Added Group Was Regarded as 100% (Total in Cells and in Medium): 39%
  Inhibitory Ratio Where Actinomycin D Non-Added Group Was Regarded as 100% (in Medium): 21% and 24%
  Amount of HGF Produced (in Medium): 79% and 76%
MRC-5 cells [3]; Actinomycin D 1 µg/ml alone
  Amount of HGF Produced (Total in Cells and in Medium): 59%
  Inhibitory Ratio Where Actinomycin D Non-Added Group Was Regarded as 100% (Total in Cells and in Medium): 41%
  Inhibitory Ratio Where Actinomycin D Non-Added Group Was Regarded as 100% (in Medium): 17% and 20%
  Amount of HGF Produced (in Medium): 83% and 80%
